Assay [1] concerns the target T1, Adenosine receptor A1 (Rattus norvegicus, UniProt P25099).
T1 sequence (P25099 whole entry): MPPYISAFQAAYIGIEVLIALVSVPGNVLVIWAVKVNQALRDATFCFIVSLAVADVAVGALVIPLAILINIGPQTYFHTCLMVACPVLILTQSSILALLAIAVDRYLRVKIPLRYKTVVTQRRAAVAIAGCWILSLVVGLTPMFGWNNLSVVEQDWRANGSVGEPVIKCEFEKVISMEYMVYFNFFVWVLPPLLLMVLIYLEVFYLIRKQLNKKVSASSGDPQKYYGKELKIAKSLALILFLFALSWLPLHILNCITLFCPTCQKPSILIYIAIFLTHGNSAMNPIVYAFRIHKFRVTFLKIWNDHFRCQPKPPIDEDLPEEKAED
The assay is described as follows: Displacement of [3H]DPCPX from adenosine A1 receptor in rat brain membranes. In kind it is cell membranes. For orientation: In a radioligand displacement assay an active substance lowers the binding of a labelled ligand.

For assay [2], the target named is T2, Adenosine receptor A3 (Homo sapiens, UniProt P0DMS8).
T2 sequence (P0DMS8 whole entry): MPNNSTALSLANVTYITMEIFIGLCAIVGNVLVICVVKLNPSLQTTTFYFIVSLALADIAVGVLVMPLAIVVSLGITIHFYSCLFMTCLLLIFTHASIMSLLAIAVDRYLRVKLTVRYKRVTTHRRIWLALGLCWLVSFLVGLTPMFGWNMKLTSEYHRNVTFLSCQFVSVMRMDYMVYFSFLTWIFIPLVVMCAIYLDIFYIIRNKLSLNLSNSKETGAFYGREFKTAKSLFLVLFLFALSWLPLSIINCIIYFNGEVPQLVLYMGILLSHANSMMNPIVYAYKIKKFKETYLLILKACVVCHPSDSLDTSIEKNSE
The assay is described as follows: Displacement of [125I]AB-MECA from human adenosine A3 receptor expressed in HEK293 cells. The format is cell-based.

Assay [3] has as its target T3, Adenosine receptor A3 (Rattus norvegicus, UniProt P28647).
T3 sequence (P28647 whole entry): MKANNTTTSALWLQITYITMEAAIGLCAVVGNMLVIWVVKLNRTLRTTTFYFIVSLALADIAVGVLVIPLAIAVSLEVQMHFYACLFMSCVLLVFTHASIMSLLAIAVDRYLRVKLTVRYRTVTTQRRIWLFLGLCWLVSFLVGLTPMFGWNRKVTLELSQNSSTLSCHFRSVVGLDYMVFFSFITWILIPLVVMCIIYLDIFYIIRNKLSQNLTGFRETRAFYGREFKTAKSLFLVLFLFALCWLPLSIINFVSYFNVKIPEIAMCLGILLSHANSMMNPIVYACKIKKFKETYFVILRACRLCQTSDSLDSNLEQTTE
Put plainly: Inhibitory activity against rat adenosine A3 receptor expressed in HEK293 cells by displacement of [125I]AB-MECA. In kind it is cell-based.

Assay [4] deals with T4, Adenosine receptor A1 (Homo sapiens, UniProt P30542).
T4 sequence (P30542 whole entry): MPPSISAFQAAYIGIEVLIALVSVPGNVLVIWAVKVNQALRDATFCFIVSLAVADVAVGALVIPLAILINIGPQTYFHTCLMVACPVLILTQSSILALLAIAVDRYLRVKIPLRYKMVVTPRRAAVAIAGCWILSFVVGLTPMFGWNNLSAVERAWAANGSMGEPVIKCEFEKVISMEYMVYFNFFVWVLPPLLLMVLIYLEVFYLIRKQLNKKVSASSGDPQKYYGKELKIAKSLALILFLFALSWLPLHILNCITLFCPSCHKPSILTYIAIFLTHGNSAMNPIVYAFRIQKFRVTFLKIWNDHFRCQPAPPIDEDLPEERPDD
Put plainly: Inhibitory activity against human adenosine A1 receptor expressed in CHO cells by displacement of [3H]DPCPX. In kind it is cell-based.

Assay [5] concerns the target T5, Adenosine receptor A2b (Homo sapiens, UniProt P29275).
T5 sequence (P29275 whole entry): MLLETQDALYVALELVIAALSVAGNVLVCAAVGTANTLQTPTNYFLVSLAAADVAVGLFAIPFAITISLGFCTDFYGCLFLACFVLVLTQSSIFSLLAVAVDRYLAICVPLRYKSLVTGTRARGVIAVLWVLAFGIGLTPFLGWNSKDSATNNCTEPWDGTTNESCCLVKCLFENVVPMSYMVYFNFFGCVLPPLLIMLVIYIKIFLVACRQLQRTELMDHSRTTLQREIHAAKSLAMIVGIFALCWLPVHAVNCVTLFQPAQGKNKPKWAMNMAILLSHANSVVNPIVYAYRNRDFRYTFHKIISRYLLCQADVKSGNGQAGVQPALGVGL
Put plainly: Inhibitory activity against human adenosine A2B receptor expressed in HEK293 cells by displacement of [3H]DPCPX. In kind it is cell-based.

The text below walks through data of ChEMBL document CHEMBL1133517, “Design, radiosynthesis, and biodistribution of a new potent and selective ligand for in vivo imaging of the adenosine A(2A) receptor system using positron emission tomography” (J Med Chem, 2000).

The structures appear in SMILES notation.

For orientation: Ki means a dissociation constant, usually derived from enzyme kinetics or from competition with a known ligand. As to `COc1ccc(CCCn2ncc3c2nc(N)n2nc(-c4ccco4)nc32)cc1`, the inhibition constant Ki was 1810 nM in assay [1]; > 10000 nM in assay [2]; > 10000 nM in assay [3]; 1110 nM in assay [4]; > 10000 nM in assay [5].
